# Values of other authors in patent publication US12208127B2, “Preparation and use of cannabis nano-formulation” (Apurano Pharmaceuticals GmbH, priority 2020, dated 2025).
# Where two headings read alike, the source gives them in different places.
# How the values were obtained:
# [1] = some pharmacological animal experiments
# [2] = i.v. single dose 1 mg
# [3] = higher formation after administration
structure (smiles),measurement,setting,value
"CCCCCc1cc(O)c2c(c1)OC(C)(C)[C@@H]1CCC(C)=C[C@@H]21 [THC, tetrahydrocannabinol]",average plasma clearance rate,naïve THC users,approximately 36 L/h
same,average plasma clearance rate,regular users,~60 L/h
"CCCCCc1cc(O)c2c(c1)OC(C)(C)[C@@H]1CCC(CO)=C[C@@H]21 [Example 11-OH-THC, 11-OH-THC]",psychotropic side effects relative to THC,[1],three to seven
same,time to tachycardia and psychological high,[2],3-5 minutes
"CCCCCc1cc(O)c2c(c1)OC(C)(C)[C@@H]1CCC(C)=C[C@@H]21 [dronabinol as capsule, dronabinol]",formation of 11-OH-THC compared to THC,[3],3 fold
